Experiments:
cAMP pathway = settings: compared with 8-BR-cAMP and forskolin; cited from earlier work
human liver organoids = assay: Long-term expansion (passaging) of human liver organoids; type: cell-based
Protocol: Human liver cells isolated by collagenase dissociation were dissociated to single cell, counted and 3000 or 10000 cells were seeded per well in a 48 well plate. Mouse liver culture medium (ERFHNic) or medium supplemented with A8301 or A8301 and BMP7 or A8301 and BMP7 and Forskolin (FSK) was overlaid as indicated and organoids were allowed to grow. The cultures were split every week 7-10 days at a ratio of 1:4-1:6 dilution.
Human liver organoids were seeded in mouse medium supplemented with A8301 and with one of the CAMP activators as indicated in FIG. 4. Cholera toxin was used at a concentration of 100 ng/ml. Only the cultures that were treated with CAMP activators were able to be expanded >2 months (P8).
Liver cells were isolated by collagenase digestion as follows: tissue (0.5-1 cm^3) was minced, rinsed 2× with DMEM (Gibco) 1% FCS and incubated with the digestion solution (2.5 mg/ml collagenase D (Roche)+0.1 mg/ml DNase I (Sigma) in EBSS (Hyclone, Thermoscientific), for […] at 37° C. The digestion was stopped by adding cold DMEM 1% FCS and the suspension was then filtered through a 70 um Nylon cell strainer and spun 5 min at 300-400 g. The pellet was resuspended in DMEM 1% FCS and kept cold. Any material retained on the strainer was further digested for 10 min in Accutase (Innovative Cell Technologies) at 37° C. Then, the digestion was stopped and the cells were collected as before. The different fractions (collagenase and accutase) were mixed and washed with cold Advanced DMEM/F12 and spun at 300-400 g for 5 min. The cell pellet was mixed with Matrigel (BD bioscience) and 3000-10000 cells were seeded per well in a 48 well/plate. After Matrigel had solidified, culture medium was added. Culture media was based on AdDMEM/F12 (Invitrogen) supplemented with N2 and B27 without retinoic acid (both from Gibco), 1.25 mM N-Acetylcysteine (Sigma). 10 nM gastrin (Sigma) and the growth factors: 50 ng/ml EGF (Peprotech), 10% RSPO1 conditioned media (home-made), 100 ng/ml FGF10 (Peprotech). 25 ng/ml HGF, 10 mM Nicotinamide (Sigma), 5 uM TGF-beta inhibitor (A83.01 (Tocris)) and 10 uM FSK (Tocris). For the establishment of the culture, the first 3 days after isolation the medium was supplemented with 25 ng/ml Noggin (Peprotech), 30% Wnt CM (home-made prepared as described in (Barker and Huch 2010)), 10 uM Rock inhibitor (Y27632) and hES Cell cloning Recovery solution (Stemgent). Then, the medium was changed into a medium without Noggin, Wnt. Y27632, hES Cell cloning Recovery solution (Stemgent) while 25 ng/ml BMP7 (Peprotech) were supplemented on top. One week-10 days organoids were removed from the Matrigel, mechanically dissociated into small fragments, and transferred to fresh Matrigel. Passage was performed in 1:4-1:8 split ratio once per week for at least 6 months. […]

[1] = test system: Lgr5 cells in human liver cultures; assay: Flow cytometry analysis of LGR5 positive cells; type: cell-based; settings: cultured >4 weeks in the presence of FSK; not readily detected in absence; 2 donor cultures
Protocol: (§1) Lgr5 expression was analysed in cultures grown in our defined culture medium by immunofluorescence and flow cytometry analysis. (FIG. 5A) Confocal image of a human liver organoid showing that the organoids are formed by epithelial derived cells positive for EPCAM (blue). The stem cell marker Lgr5 (green) was restricted to a subset of cells within the organoid, while the Wnt target gene EPHB2 (red) was broadly expressed, but colocalized with LGR5 as expected. Staining was performed on single cells isolated from a culture that had been cultured for >4 weeks in the presence or absence of FSK. Only in the presence of FSK Lgr5 cells could be readily detected as a 1-3% of the culture population. Experiment was performed in 2 independent human liver donor cultures. (FIG. 5C) qPCR analysis of the expression of LGR5 in 4 week old cultures treated in the presence or absence of FSK.
Exponentially growing organoids were cultured for at least 5 days in the presence or absence of FSK. Then, organoids were dissociated into single cells using Accutase, resuspended in DMEM+2% FBS and incubated with Lgr5 antibody (AP2745d, Abgent) for 45 min. […] Cells were analyzed with a BD FACS Calibur (Becton-Dickinson); FSC: propidium iodide was used to label dead cells for exclusion and pulse-width gating to exclude cell doublets.

[2] = test system: LGR5 expression in human liver cultures; assay: qPCR analysis of LGR5 expression; type: cell-based; settings: 4 week old cultures, presence vs absence of FSK
Protocol: as §1

[3] = test system: human liver organoid cultures (ALB, CYP3A4 expression); settings: hepatocytes
[4] = culture medium supplemented with A8301 combined with FSK, split ratio 1:4-1:6 every 7-10 days

**Q.** For `C=C[C@@]1(C)CC(=O)[C@]2(O)[C@@]3(C)[C@@H](O)CCC(C)(C)[C@@H]3[C@H](OC(=O)CCN(C)C)[C@H](OC(C)=O)[C@@]2(C)O1.Cl` [NKH477], which “relative potency as cAMP pathway activator” value (cAMP pathway) is on record?
**A.** generally more potent than 8-BR-CAMP and forskolin

**Q.** For `Cc1cccc(-c2nn(C(=S)Nc3ccccc3)cc2-c2ccnc3ccccc23)n1` [A83-01, 3-(6-Methyl-2-pyridinyl)-N-phenyl-4-(4-quinolinyl)-1H-pyrazole-1-carbothioamide], which long-term expansion outcome (human liver organoids; medium supplemented with A8301 only (no FSK)) is on record?
**A.** arrested proliferation after some weeks in culture

**Q.** For `C=C[C@@]1(C)CC(=O)[C@]2(O)[C@@]3(C)[C@@H](O)CCC(C)(C)[C@@H]3[C@H](O)[C@H](OC(C)=O)[C@@]2(C)O1` [FSK, forskolin], which “number of passages the cultures were able to grow” value (human liver organoids; [4]) is on record?
**A.** > 18 passages

**Q.** And the “time the cultures were able to grow” value (human liver organoids; [4])?
**A.** > 5 months

**Q.** And the “Lgr5 cells as % of the culture population” value [1]?
**A.** 1-3%

**Q.** And the “LGR5 expression levels, upregulation upon treatment” value [2]?
**A.** 2-3 ×

B1: BMP7: BMP pathway activator; induces the phosphorylation of SMAD1 and SMAD5 (protein, UniProt P18075 293-431, looked up)
Bone morphogenetic protein 7: STGSKQRSQNRSKTPKNQEALRMANVAENSSSDQRQACKKHELYVSFRDLGWQDWIIAPEGYAAYYCEGECAFPLNSYMNATNHAIVQTLVHFINPETVPKPCCAPTQLNAISVLYFDDSSNVILKKYRNMVVRACGCH
**Q.** With B1 as the molecule, how does the long-term expansion outcome (human liver organoids; medium supplemented with BMP7 and A8301 (no FSK)) read?
**A.** arrested proliferation after some weeks in culture

**Q.** And the “effect on expression of hepatocyte markers ALB and CYP3A4” value [3]?
**A.** slightly facilitated the expression of hepatocyte markers ALB and CYP3A4
